Measured values reported in patent US20090005436A1, “Substituted Aminoalkyl- and Amidoalkyl-Benzopyran Derivatives” (NEWRON PHARMACEUTICALS S.p.A., priority 2005, published 2009).

Key:
MAO-B = target: T1, MAO-B (Rattus norvegicus, UniProt P19643); experiment: In vitro MAO-B enzyme activity radioenzymatic assay (14C-phenylethylamine substrate), rat brain crude mitochondrial fraction
T1 sequence (P19643 1-520): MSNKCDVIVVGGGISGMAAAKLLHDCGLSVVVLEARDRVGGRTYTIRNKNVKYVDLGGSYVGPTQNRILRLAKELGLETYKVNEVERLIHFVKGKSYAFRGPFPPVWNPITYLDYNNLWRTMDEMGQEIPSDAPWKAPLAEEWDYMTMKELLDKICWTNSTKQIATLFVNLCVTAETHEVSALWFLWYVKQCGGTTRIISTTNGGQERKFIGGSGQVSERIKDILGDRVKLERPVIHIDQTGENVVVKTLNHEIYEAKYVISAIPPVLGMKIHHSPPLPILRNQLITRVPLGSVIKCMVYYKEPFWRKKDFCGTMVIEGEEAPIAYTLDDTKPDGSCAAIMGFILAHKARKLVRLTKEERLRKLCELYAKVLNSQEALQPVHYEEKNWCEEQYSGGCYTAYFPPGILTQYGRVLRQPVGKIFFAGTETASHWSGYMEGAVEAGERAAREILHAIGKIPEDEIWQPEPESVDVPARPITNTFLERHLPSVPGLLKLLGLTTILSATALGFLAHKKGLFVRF

MAO-A = target: T2, MAO-A (Rattus norvegicus, UniProt P21396); experiment: In vitro MAO-A enzyme activity radioenzymatic assay (14C-serotonin substrate), rat brain crude mitochondrial fraction
T2 sequence (P21396 1-526): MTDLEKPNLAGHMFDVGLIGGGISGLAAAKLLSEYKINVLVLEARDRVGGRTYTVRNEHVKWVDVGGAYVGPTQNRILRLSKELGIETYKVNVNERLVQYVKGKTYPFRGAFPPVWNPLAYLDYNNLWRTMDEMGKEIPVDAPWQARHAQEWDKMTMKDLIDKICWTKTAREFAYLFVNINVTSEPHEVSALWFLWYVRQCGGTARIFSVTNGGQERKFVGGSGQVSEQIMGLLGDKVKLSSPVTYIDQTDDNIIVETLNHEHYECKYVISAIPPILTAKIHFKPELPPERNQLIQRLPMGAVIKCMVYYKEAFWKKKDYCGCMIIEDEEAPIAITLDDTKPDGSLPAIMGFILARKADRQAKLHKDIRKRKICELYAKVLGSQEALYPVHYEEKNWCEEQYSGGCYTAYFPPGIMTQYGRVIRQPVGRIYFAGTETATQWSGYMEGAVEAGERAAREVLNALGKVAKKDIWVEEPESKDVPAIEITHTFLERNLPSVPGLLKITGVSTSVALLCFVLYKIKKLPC

SMILES | IC50 (MAO-B) [nM] | IC50 (MAO-A) [nM]
CN(C)C(=O)CC1=CCOc2cc(OCc3ccccc3)ccc21 [4-[(Dimethylaminocarbonyl)methyl]-7-benzyloxy-2H-chromene] | 80 | 15300
CNCCc1cc(=O)oc2cc(OCc3cccc(Cl)c3)ccc12 [4-[2-(Methylamino)ethyl]-7-(3-chlorobenzyloxy)-2H-chromen-2-one] | 300 | 74000
NNC(=O)Cc1cc(=O)oc2cc(OCc3ccccc3)ccc12 [4-[(Hydrazinocarbonyl)methyl]-7-benzyloxy-2H-chromen-2-one] | – | 1400
CNCc1cc(=O)oc2cc(OCc3cccc(Cl)c3)ccc12 [4-[(Methylamino)methyl]-7-(3-chlorobenzyloxy)-2H-chromen-2-one] | 10 | 5900
NCCc1cc(=O)oc2cc(OCc3cccc(Cl)c3)ccc12 [4-(2-Aminoethyl)-7-(3-chlorobenzyloxy)-2H-chromen-2-one] | 250 | 31800
CN(C)C(=O)Cc1cc(=O)oc2cc(OCc3cccc(Cl)c3)ccc12 [4-[Dimethylaminocarbonyl)methyl]-7-(3-chlorobenzyloxy)-2H-chromen-2-one] | 40 | > 100000
NC(=O)Cc1cc(=O)oc2cc(OCc3cccc(F)c3)ccc12 [4-[(Aminocarbonyl)methyl]-7-(3-fluorobenzyloxy)-2H-chromen-2-one] | 50 | 70000
CNCc1cc(=O)oc2cc(OCc3cccc(F)c3)ccc12 [4-[(Methylamino)methyl]-7-(3-fluorobenzyloxy)-2H-chromen-2-one] | 20 | 13500
NCc1cc(=O)oc2cc(OCc3cccc(Cl)c3)ccc12 [4-Aminomethyl-7-(3-chlorobenzyloxy)-2H-chromen-2-one] | 10 | 1900
